# Reference: US20210113563A1, “4-(4-CYANO-2-THIOARYL)DIHYDROPYRIMIDINONES FOR TREATING CHRONIC WOUNDS” (pH Pharma Co., Ltd., priority 2015, published 2021)
# pIC50: −log10 of the molar value. Entries after “also recorded” stand apart in the source; their conditions may differ.
# Key:
# HaCaT cells = assay: HaCaT modified scratch assay (Oris Cell Migration Assay) with human neutrophil elastase; format: cell-based; details: 7.5 μg/mL hNE
# Description: The modified scratch-wound assay is a simple, reproducible assay commonly used to measure basic cell migration parameters such as speed, persistence, and polarity. Cells are grown to confluence and a thin “wound” is introduced by scratching with a pipette tip. In the modified version, a plastic plug is placed into the tissue well while the cells adhere and grow to confluence. When the plug is pulled, a circular “wound” emerges. Cells at the wound edge polarise and migrate into the wound space. […] At the given time points, the size of the free area is measured.
# Method: Oris Cell Migration Assay (collagen I coated) with HaCaT cells. Establishing a dose response curve for test compounds with and without addition of 7.5 μg/mL human neutrophil elastase (hNE).
# For harvesting the cells, the medium was first extracted from the cell culture flask, then washed with PBS and 10-20 ml aspirated again. 2.5 ml (75 cm^2 flask bottom area) or 5 ml (162 cm^2) TrypLE Express were added, as well as the same amount of PBS followed by incubating the cells for 10 minutes (37° C.). The cells were transferred into a tube, centrifuged (250×g, 10 min, RT=room temperature) and resuspended in medium.
# The following cell concentration was used: 7×10^5 cells/ml=7×10^4 cells/well/100 μl.
# In this time, the cells adhered and grew to confluence. The compounds were then added to achieve the below indicated concentrations. The plugs were then removed.
# Once all components were pipetted to the cells, one photo per well was taken including the “wound” (0 h). A Zeiss AxioObserver (5× lens, bright field, 5.5 V light exposure 2.2 ms) and the AxioVision software was used. […] 16 h later pictures were taken again.
# The relative healing was calculated, i.e. the percentage of closed wound area compared to baseline at 0 h.
# Wound healing %=100−(‘wound surface after x hours’*100/‘wound surface after 0 hours’)
# From the calculated relative wound healing a graphic in GrapPad prism was created, and EC50 values were determined.
# For evaluation of pictures the software ImageJ was used. For this, the ZVI files were exported within the AxioVision software as jpg. This jpg files were then opened by ImageJ. Using the Tools panel (Mode: 4-connected/Tolerance=5-20) the to be measured surface area was marked.
# [1] = system: wounds of Tight Skin mice (TSK); assay: Reepithelialization and visual healing of full thickness skin excision wounds in Tight Skin mice (TSK); format: in vivo; details: TSK mouse; for Wound closure (reepithelialization) in % of initial epidermal gap: d 12, CK16 staining
# Excerpt: OBJECTIVE: To evaluate wound closure/reepithelialization promoting effects of the Neutrophil Elastase Inhibitor Example 3 in a fibrosis-related model of delayed wound healing (Tight Skin Mouse, TSK). METHODS: Animals: mice, male+female, strain: B6.Cg-FBN1<Tsk>−/− (wt) and +/−(het), age: 5 weeks upon delivery, breeder: Bayer. Food (ssniff R/M-H) and water was provided ad libitum. Experimental procedure: Mice were randomized at day 0. At day 0, 3 full thickness excision wounds were induced. For that, animals were anesthetized (Rompun/Ketavet/NaCl 0.9% [1+3+16]) in […]. The lower back was shaved, then moistened with tap water. Pilca depilation cream was applied and left for 3-5 minutes to act, then wiped off. To prevent the animals from cooling down during the procedure, they were placed on warming mats. Skin was excised using 6 mm diameter round scalpels. After wake up mice were distributed to individual cages. Treatment: Day 0 to 11 twice daily per os. Example 3 was dissolved in PEG400 as a vehicle. Administration was twice daily (bid). Skin samples were harvested into formalin (3.7% in PBS) at day 12 after scarifying with isoflurane/O2/N2O anesthesia followed by dislocation of the cervical spine. After soaking in formalin (24-72 h), the samples were transferred to paraffin and then cut. Staining of cytokeratin 16 was performed using rabbit polyclonal anti-Keratin 16 (CK16, KRT16, ABIN265495), 1 mg/ml anti-CK16 antibody by IHC-Peroxidase (in a 1:100 dilution) EnVision+ System-HRP (DAB), for Rabbit Primary Antibodies (Dako #K4011).
# Effects were most prominent on d7 and d9. All dosages were similarly effective, i.e. a clear dose response ratio remained to be established. […] Based on the size of the induced wounds, 6000 μm was set as 100%. The epidermal gap, i.e. the distance between the epidermal edges was measured by microscopic histometry. The width of the gap was subtracted from the initial wound. The delta represented the reepithelialized part of the wound and was expressed as reepithelialization in % of the initial wound diameter, i.e. 100% equaled complete reepithelialization or full wound closure.
# [2] = target: T1, human neutrophil elastase (HNE) (Homo sapiens, UniProt P08246); details: read-out: Inhibition of human neutrophil elastase (HNE) IC50; cited from earlier work
# T1 sequence (P08246 30-267): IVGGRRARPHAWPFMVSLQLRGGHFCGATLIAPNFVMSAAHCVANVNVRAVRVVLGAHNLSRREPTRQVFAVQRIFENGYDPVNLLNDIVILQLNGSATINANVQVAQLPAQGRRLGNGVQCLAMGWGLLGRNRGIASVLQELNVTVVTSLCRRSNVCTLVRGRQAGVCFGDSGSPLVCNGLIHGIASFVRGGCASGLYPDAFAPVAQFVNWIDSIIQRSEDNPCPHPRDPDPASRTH
Structure (SMILES),Correction of the reepithelialization-impairing effect of NE (in words) (HaCaT cells),"pIC50 (HaCaT cells; Homo sapiens, 16 h)","Bottom (HaCaT cells; curve fit, 16 h)","Span (HaCaT cells; curve fit, 16 h)","Top (HaCaT cells; curve fit, 16 h)",Wound closure (reepithelialization) in % of initial epidermal gap ([1]; 2.5 mg/kg BW twice daily p.o.) [%],Wound closure (reepithelialization) in % of initial epidermal gap ([1]; 5 mg/kg BW twice daily p.o.) [%],Wound closure (reepithelialization) in % of initial epidermal gap ([1]; 10 mg/kg BW twice daily p.o.) [%],Wound closure (reepithelialization) in % of initial epidermal gap ([1]; 20 mg/kg BW twice daily p.o.) [%],"Visual wound healing, wound area reduction over time (in words) ([1]; 2.5-20 mg/kg bid p.o., FIG. 1)","Reepithelialization vs. vehicle controls, histological (in words) ([1]; d 12)",pIC50 [2]
"CC1=C(C#N)[C@@H](c2ccc(C#N)cc2S(C)(=O)=O)N(S(C)(=O)=O)C(=O)N1c1cccc(C(F)(F)F)c1 [Example 3, (4 S)-4-[4-Cyano-2-(methylsulfonyl)phenyl]-6-methyl-3-(methylsulfonyl)-2-oxo-1-[3-(trifluoromethyl)phenyl]-1,2,3,4-tetrahydropyrimidine-5-carbonitrile]","almost entirely, potently and concentration-dependently be corrected; also recorded: potently and effectively able to block detrimental effects of NE",7.24,90.41,−47.65,42.75,95.8,93.9,99.5,100,significant visual wound healing improving effects; also recorded: induced accelerated wound healing,reepithelialization was significantly further advanced,> 9.52
"CC1=C(C#N)[C@@H](c2ccc(C#N)cc2S(C)(=O)=O)N(S(=O)(=O)C2CC2)C(=O)N1c1cccc(C(F)(F)F)c1 [Example 4, (4 S)-4-[4-Cyano-2-(methylsulfonyl)phenyl]-6-methyl-3-(cyclopropylsulfonyl)-2-oxo-1-[3-(trifluoromethyl)phenyl]-1,2,3,4-tetrahydropyrimidine-5-carbonitrile]",–,–,–,–,–,–,–,–,–,–,–,> 9.52
"CCS(=O)(=O)c1cc(C#N)ccc1[C@@H]1C(C#N)=C(C)N(c2cccc(C(F)(F)F)c2)C(=O)N1C [Example 6, (4 S)-4-[4-Cyano-2-(ethylsulfonyl)phenyl]-3,6-dimethyl-2-oxo-1-[3-(trifluoromethyl)phenyl]-1,2,3,4-tetrahydropyrimidine-5-carbonitrile]",–,–,–,–,–,–,–,–,–,–,–,> 9.52
